In US20230286960A1, “ALLOSTERIC CHROMENONE INHIBITORS OF PHOSPHOINOSITIDE 3-KINASE (PI3K) FOR THE TREATMENT OF DISEASE” (Petra Pharma Corporation, priority 2020, published 2023):

Columns and labels:
[1] = biological target: human full length PIK3CA wild-type (p110α/p85α) (Homo sapiens (Human), UniProt P42336); test: PI3K-alpha kinase (PIK3CA) activity, wild-type, Transcreener ADP2 FI assay; conditions: PI3K-α (PIK3CA) biochemical
Experimental: (§1) PI3K-Alpha Kinase (PIK3CA) Activity, Wild-Type and H1047R Mutant and Determining IC50 Values for Inhibitors
(§2) Recombinant, catalytically active human full length PIK3KA Wild-type and H1047R mutant were purchased as 1:1 complex of N-terminal 6× his tagged p110 ? (catalytic) and untagged p85 ? (regulatory subunit) from EMD Millipore Sigma (cat. no. 14-602M and 14-792M, respectively). The enzyme stocks were diluted to 5× stocks in buffer (20 mM HEPES pH 7.4, 100 mM NaCl, 0.5 mM EGTA, 0.01% triton-x-100) just before use. PIP2diC8 (Avanti Polar Lipids Inc., cat. no. 850185) or phosphoinositol-4,5-bisphosphate with phosphoserine (PIP2:PS) membrane (Thermo Fisher Scientific, cat. no. PV5100) was used as lipid substrates. PIP2diC8 lyophilized powder and PIP2:PS (1:19) membrane stock (1 mM in PIP2) were separately dissolved in milliQ water to a concentration of 250 uM and stored in −20° C. 10 mM stocks of compounds were serially diluted (3×) in neat DMSO and stored in a dessicator at room temperature. 5× compound stocks in 25% DMSO were prepared fresh from neat DMSO stocks.
(§3) Wild-type (WT) and H1047R mutant protein, along with buffer components (except ATP), were incubated with or without compound at 27° C. for 1 h. After incubation, the reaction was initiated by the addition of 5 uL of 125 uM ATP. A typical assay mixture (25 uL) comprised 40 mM HEPES buffer, pH 7.4, 25 mM MgCl2, 0.01% v/v triton-X-100, 5% v/v DMSO, 20 mM NaCl, 1-5 nM wt or H1047R, 25 uM ATP, and 50 uM PIP2diC8 or PIP2 in membrane. The reaction was allowed to proceed until about […] (2.5 uM ADP) after which time, 10 uL of reaction mixture was quenched with 25 uL of transcreener reagent (Transcreener ADP2 FI assay kit, BellBrook labs, Cat. No. 3013). The contents were incubated at rt for 1 h and fluorescence was measured using a plate reader (Paradigm, Molecular Devices). The same assay was also run at pH 6.0 or 6.4 using MOPS buffer (Fisher BioReagents, CAS 1132-61-2). A calibration curve was generated under identical buffer conditions with varying ADP amounts. Using that, the observed fluorescence was converted to uM ADP. A plot between [ADP] and log[I] yielded the dose-response curves that enabled the calculation of IC50s.

[2] = biological target: human full length PIK3CA H1047R mutant (p110α/p85α) (Homo sapiens (Human), UniProt P42336, H1047R); test: PI3K-alpha kinase (PIK3CA) activity, H1047R mutant, Transcreener ADP2 FI assay; conditions: PI3K-α (PIK3CA) biochemical
Chain of human full length PIK3CA H1047R mutant (p110α/p85α) (P42336 whole entry H1047R): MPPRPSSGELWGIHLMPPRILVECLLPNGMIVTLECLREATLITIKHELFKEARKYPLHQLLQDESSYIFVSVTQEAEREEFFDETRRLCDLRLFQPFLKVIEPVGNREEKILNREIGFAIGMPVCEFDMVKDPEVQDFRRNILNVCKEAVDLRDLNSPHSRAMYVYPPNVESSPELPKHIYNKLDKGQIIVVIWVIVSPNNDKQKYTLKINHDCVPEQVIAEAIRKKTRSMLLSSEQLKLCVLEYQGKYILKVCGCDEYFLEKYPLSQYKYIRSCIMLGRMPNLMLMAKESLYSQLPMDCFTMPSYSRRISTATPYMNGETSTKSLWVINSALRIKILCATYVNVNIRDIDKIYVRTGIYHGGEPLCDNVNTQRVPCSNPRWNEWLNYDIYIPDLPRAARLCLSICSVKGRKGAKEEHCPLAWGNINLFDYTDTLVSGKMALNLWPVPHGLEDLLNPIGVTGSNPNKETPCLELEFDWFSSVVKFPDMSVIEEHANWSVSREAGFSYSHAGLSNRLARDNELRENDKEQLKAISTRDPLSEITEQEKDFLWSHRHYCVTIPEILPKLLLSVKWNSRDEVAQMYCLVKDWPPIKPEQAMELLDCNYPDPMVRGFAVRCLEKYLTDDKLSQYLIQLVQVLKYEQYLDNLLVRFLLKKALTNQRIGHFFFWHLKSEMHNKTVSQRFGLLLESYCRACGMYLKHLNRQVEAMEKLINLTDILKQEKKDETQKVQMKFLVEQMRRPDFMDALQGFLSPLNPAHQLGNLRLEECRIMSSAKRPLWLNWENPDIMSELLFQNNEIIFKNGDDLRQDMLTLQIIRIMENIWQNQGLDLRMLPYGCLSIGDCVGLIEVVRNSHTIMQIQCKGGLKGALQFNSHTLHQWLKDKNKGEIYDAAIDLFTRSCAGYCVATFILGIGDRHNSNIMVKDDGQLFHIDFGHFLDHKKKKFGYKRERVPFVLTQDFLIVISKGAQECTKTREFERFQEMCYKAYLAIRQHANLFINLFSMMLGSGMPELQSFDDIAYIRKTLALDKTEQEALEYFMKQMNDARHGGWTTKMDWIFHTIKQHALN
Chain of human full length PIK3CA H1047R mutant (p110α/p85α) (P27986 whole entry partner): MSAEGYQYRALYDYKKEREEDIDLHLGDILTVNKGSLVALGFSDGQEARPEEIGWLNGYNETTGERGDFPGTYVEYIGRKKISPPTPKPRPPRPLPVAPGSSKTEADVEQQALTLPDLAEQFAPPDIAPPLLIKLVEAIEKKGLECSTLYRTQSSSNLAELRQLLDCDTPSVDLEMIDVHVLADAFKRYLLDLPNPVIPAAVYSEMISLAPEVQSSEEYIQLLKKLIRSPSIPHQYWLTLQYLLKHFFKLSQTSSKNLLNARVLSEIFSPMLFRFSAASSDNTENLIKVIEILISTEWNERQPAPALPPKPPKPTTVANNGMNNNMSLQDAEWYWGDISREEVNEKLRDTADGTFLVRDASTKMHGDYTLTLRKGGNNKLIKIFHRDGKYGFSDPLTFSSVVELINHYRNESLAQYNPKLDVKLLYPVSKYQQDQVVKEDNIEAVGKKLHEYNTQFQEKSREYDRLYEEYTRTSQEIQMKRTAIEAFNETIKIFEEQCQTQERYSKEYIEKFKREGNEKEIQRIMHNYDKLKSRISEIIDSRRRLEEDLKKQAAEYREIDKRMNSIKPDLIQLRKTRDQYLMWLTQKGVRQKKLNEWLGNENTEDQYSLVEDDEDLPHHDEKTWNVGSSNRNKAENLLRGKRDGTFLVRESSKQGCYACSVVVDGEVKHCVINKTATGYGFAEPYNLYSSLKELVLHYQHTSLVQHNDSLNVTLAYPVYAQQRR
Experimental: as §1, §2, §3

[3] = Mouse PK Assays; type: in vivo; set-up: PK-Mouse: PO AUC-last/dose: unit not given here; conditions: fed
[4] = PO 10 mg/kg, 20% DMSO/60% PEG400/20% Water
[5] = PO 50 mg/kg, 20% DMSO/60% PEG400/20% Water
[6] = PO 10 mg/kg, 30% SBE-beta-cyclodextrin
[7] = PO 100 mg/kg, 20% DMSO/60% PEG400/20% H2O

Chain of human full length PIK3CA wild-type (p110α/p85α) (P42336 whole entry): as the sequence (P42336 whole entry H1047R) above, with R1047H counted along it
Chain of human full length PIK3CA wild-type (p110α/p85α) (P27986 whole entry partner): as the sequence (P27986 whole entry partner) above

| Compound | IC50 [1] [nM] | IC50 [2] [nM] | other results |
| --- | --- | --- | --- |
| Cc1cc(C(C)Nc2ccc(Cl)nc2C(=O)O)c2oc(N3CCC4(CC3)CC4)cc(=O)c2c1 (stereo not shown) [Example 298, 3-[1-[2-(6-Azaspiro[2.5]octan-6-yl)-6-methyl-4-oxo-chromen-8-yl]ethylamino]-6-chloro-pyridine-2-carboxylic acid] | < 500 | < 500 | – |
| Cc1cc([C@@H](C)Nc2ccccc2C(=O)O)c2oc(N3CC(C)(c4ccccc4)C3)c(C)c(=O)c2c1 [Example 274, 2-[[(1R)-1-[3,6-Dimethyl-2-(3-methyl-3-phenyl-azetidin-1-yl)-4-oxo-chromen-8-yl]ethyl]amino]benzoic acid] | < 500 | < 500 | – |
| Cc1cc([C@@H](C)Nc2ccc(Cl)nc2C(=O)O)c2oc(N3CCC(F)(F)CC3)c(C)c(=O)c2c1 [Example 310, 6-Chloro-3-[[(1R)-1-[2-(4,4-difluoro-1-piperidyl)-3,6-dimethyl-4-oxo-chromen-8-yl]ethyl]amino]pyridine-2-carboxylic acid] | < 500 | < 500 | – |
| Cc1cc(C(C)Nc2c(Cl)cccc2C(=O)O)c2oc(N3CCC(C)(C)CC3)cc(=O)c2c1 (stereo not shown) [Example 11, 3-Chloro-2-[1-[2-(4,4-dimethyl-1-piperidyl)-6-methyl-4-oxo-chromen-8-yl]ethylamino]benzoic acid] | > 10000 | > 10000 | – |
| Cc1cc(C(C)Nc2ccc(C#N)cc2C(=O)O)c2oc(N3CCC(C)(C)CC3)cc(=O)c2c1 (stereo not shown) [Example 6, 5-Cyano-2-[1-[2-(4,4-dimethyl-1-piperidyl)-6-methyl-4-oxo-chromen-8-yl]ethylamino]benzoic acid] | > 10000 | < 500 | – |
| Cc1cc(C(C)Nc2ccc(Cl)nc2C(=O)O)c2oc(N3CCCCC3)c(C)c(=O)c2c1 (stereo not shown) [Example 305, 6-Chloro-3-[1-[3,6-dimethyl-4-oxo-2-(1-piperidyl)chromen-8-yl]ethylamino]pyridine-2-carboxylic acid] | < 500 | < 500 | – |
| Cc1cc(C(C)Nc2ccccc2C(=O)O)c2oc(NCC(C)C)cc(=O)c2c1 (stereo not shown) [Example 77, 2-[1-[2-(Isobutylamino)-6-methyl-4-oxo-chromen-8-yl]ethylamino]benzoic acid] | > 10000 | < 500 | – |
| Cc1cc(C(C)Nc2ccccc2C(=O)O)c2oc(N3CC(Cl)C3)cc(=O)c2c1 (stereo not shown) [Example 63, 2-[1-[2-(3-Chloroazetidin-1-yl)-6-methyl-4-oxo-chromen-8-yl]ethylamino]benzoic acid] | > 10000 | < 500 | – |
| Cc1cc(C(C)Nc2ccccc2C(=O)O)c2oc(N3Cc4ccccc4C3)cc(=O)c2c1 (single isomer, unassigned) [Example 363, 2-[1-(2-Isoindolin-2-yl-6-methyl-4-oxo-chromen-8-yl)ethylamino]benzoic acid] | – | – | PK-Mouse: F % Calcd [3, 4]: 86%; PK-Mouse: PO AUC-last/dose [3, 4]: 1800; PK-Mouse: F % Calcd [3, 5]: 33%; PK-Mouse: PO AUC-last/dose [3, 5]: 700 |
| Cc1cc([C@@H](C)Nc2ccc(Cl)nc2C(=O)O)c2oc(N3CCC(C)(C)CC3)cc(=O)c2c1 [Example 256, 6-Chloro-3-[[(1R)-1-[2-(4,4-dimethyl-1-piperidyl)-6-methyl-4-oxo-chromen-8-yl]lethyl]amino]pyridine-2-carboxylic acid] | < 500 | < 500 | – |
| Cc1cc(C(C)Nc2ccc(B(O)O)cc2C(=O)O)c2oc(N3CCC(C)(C)CC3)cc(=O)c2c1 (stereo not shown) [Example 357, 5-Borono-2-[1-[2-(4,4-dimethyl-1-piperidyl)-6-methyl-4-oxo-chromen-8-yl]ethylamino]benzoic acid] | > 10000 | > 10000 | – |
| Cc1cc([C@@H](C)Nc2ccc(Cl)nc2C(=O)O)c2oc(N3CCCCC3)c(C)c(=O)c2c1 [Example 309, 6-Chloro-3-[[(1R)-1-[3,6-dimethyl-4-oxo-2-(1-piperidyl)chromen-8-yl]ethyl]amino]pyridine-2-carboxylic acid] | < 500 | < 500 | – |
| Cc1cc([C@@H](C)Nc2ccc(Cl)nc2C(=O)O)c2oc(N3Cc4ccccc4C3)cc(=O)c2c1 [Example 300, 6-Chloro-3-[[(1R)-1-(2-isoindolin-2-yl-6-methyl-4-oxo-chromen-8-yl)ethyl]amino]pyridine-2-carboxylic acid] | < 500 | < 500 | – |
| Cc1cc([C@@H](C)Nc2ccccc2C(=O)O)c2oc(N3CC[C@H](c4ccccc4)C3)c(C)c(=O)c2c1 [Example 286, 2-[[(1R)-1-[3,6-dimethyl-4-oxo-2-[(3R)-3-phenylpyrrolidin-1-yl]chromen-8-yl]ethyl]amino]benzoic acid] | < 500 | < 500 | – |
| Cc1cc([C@@H](C)Nc2ccc(Cl)nc2C(=O)O)c2oc(N3Cc4ccc5c(c4C3)OCO5)cc(=O)c2c1 [Example 301, 6-Chloro-3-[[(1R)-1-[2-(6,8-dihydro-[1,3]dioxolo[4,5-e]isoindol-7-yl)-6-methyl-4-oxo-chromen-8-yl]ethyl]amino]pyridine-2-carboxylic acid] | < 500 | < 500 | – |
| Cc1cc(C(C)Nc2ccccc2C(=O)O)c2oc(N3CCC(C)(C)CC3)cc(=O)c2c1 (single isomer, unassigned) [Example 366, 2-[1-[2-(4,4-Dimethyl-1-piperidyl)-6-methyl-4-oxo-chromen-8-yl]ethylamino]benzoic acid] | – | – | PK-Mouse: F % Calcd [3, 6]: 110%; PK-Mouse: PO AUC-last/dose [3, 6]: 390; PK-Mouse: F % Calcd [3, 5]: 280%; PK-Mouse: PO AUC-last/dose [3, 5]: 960; PK-Mouse: F % Calcd [3, 7]: 220%; PK-Mouse: PO AUC-last/dose [3, 7]: 760 |
| Cc1cc([C@@H](C)Nc2ccc(Cl)nc2C(=O)O)c2oc(N3Cc4ccc(F)cc4C3)c(C)c(=O)c2c1 [Example 308, 6-Chloro-3-[[(1R)-1-[2-(5-fluoroisoindolin-2-yl)-3,6-dimethyl-4-oxo-chromen-8-yl]ethyl]amino]pyridine-2-carboxylic acid] | < 500 | < 500 | – |
